US20260265250A1, “3-[…] ACTIVATORS OF SEROTONIN RECEPTORS” (Atai Therapeutics, Inc., priority 2023, published 2026)
Structures can show the parent of a compound that is named as a salt.

Assays:
5-HT2A [1] = target: T1, 5-HT2A (Homo sapiens, UniProt P28223); test: Calcium Mobilization Assay (Calcium No-WashPLUS, Gq, FLIPR); type: cell-based; settings: read-out: 5-HT2A % activation @30 uM Ca++ Flux
Experimental: (§1) Compounds 1-18 were assessed for biological activity across a panel of 5-HT receptors including 5-HT2A, 5-HT2B, and 5-HT2C. Biased signaling was assessed by monitoring both intracellular Gq-mediated calcium release, as well as β-arrestin activation and recruitment to the GPCR. Table 2 is a summary of findings across these compounds and the 5-HT receptors tested. • (i) Arrestin Pathway Assay. The PathHunter® β-Arrestin assay monitors the activation of a GPCR in a homogenous, non-imaging assay format using a technology developed by DiscoverX called Enzyme Fragment Complementation (EFC) with β-galactosidase (β-Gal) as the functional reporter. […] EA is fused to β-Arrestin and PK is fused to the GPCR of interest. When the GPCR is activated and β-Arrestin is recruited to the receptor, ED and EA complementation occurs, restoring β-Gal activity which is measured using chemiluminescent PathHunter® Detection Reagents. PathHunter cell lines (DiscoveRx Eurofins) were expanded from freezer stocks according to standard procedures. Cells were seeded in a total volume of 20 μL into white walled, 384-well microplates and incubated at 37° C. for the appropriate time prior to testing. For agonist determination, cells were incubated with sample to induce response. Intermediate dilution of sample stocks was performed to generate 5× sample in assay buffer. 5 μL of 5× sample was added to cells and incubated at 37° C. or room temperature for 90 to 180 minutes. Vehicle concentration was 1%. β-Arrestin assay signal was generated through a single addition of 12.5 or 15 μL (50% v/v) of PathHunter Detection reagent cocktail, followed by a one-hour incubation at room temperature. Microplates were read following signal generation with a PerkinElmer Envision™ instrument for chemiluminescent signal detection. Compound activity was analyzed using CBIS data analysis suite (ChemInnovation, CA). For agonist mode assays, percentage activity was calculated using the following formula: % Activity=100%×(mean RLU of test sample-mean RLU of vehicle control)/(mean MAX control ligand−mean RLU of vehicle control). In these studies, the MAX control ligand response was generated using 10 mM serotonin. • (ii) Calcium Mobilization Assay. The Calcium No-WashPLUS assay monitors the activation of a GPCR via Gq secondary messenger signaling in a live cell, non-imaging assay format. Calcium mobilization in PathHunter® cell lines or other cell lines stably expressing Gq-coupled GPCRs is monitored using a calcium-sensitive dye that is loaded into cells. GPCR activation by a compound result in the release of calcium from intracellular stores and an increase in dye fluorescence that is measured in real-time. Cell lines expressing the GPCR of interest were expanded from freezer stocks according to standard procedures. Cells were seeded in a total volume of 20 μL into black-walled, clear-bottom, Poly-D-lysine coated 384-well microplates and incubated at 37° C. for the appropriate time prior to testing. Assays were performed in 1× Dye Loading Buffer consisting of 1× Dye, 1× Additive A and 2.5 mM Probenecid in HBSS/20 mM Hepes. Probenicid was prepared fresh. Cells were loaded with dye prior to testing. Media was aspirated from cells and replaced with 20 μL Dye Loading Buffer. Cells were incubated for 30-60 minutes at 37° C. For agonist determination, cells were incubated with sample to induce response. After dye loading, cells were removed from the incubator and 10 μL HBSS/20 mM Hepes was added. 3× vehicle was included in the buffer when performing agonist dose curves to define the EC80 for subsequent antagonist assays. Cells were incubated for 30 minutes at room temperature in the dark to equilibrate plate temperature. Intermediate dilution of sample stocks was performed to generate 4× sample in assay buffer. Compound agonist activity was measured on a FLIPR Tetra (MDS). Calcium mobilization was monitored for 2 minutes and 10 μL 4× sample in HBSS/20 mM Hepes was added to the cells 5 seconds into the assay. […]
Target sequence in this assay (P28223 whole entry, the tested form may be a part): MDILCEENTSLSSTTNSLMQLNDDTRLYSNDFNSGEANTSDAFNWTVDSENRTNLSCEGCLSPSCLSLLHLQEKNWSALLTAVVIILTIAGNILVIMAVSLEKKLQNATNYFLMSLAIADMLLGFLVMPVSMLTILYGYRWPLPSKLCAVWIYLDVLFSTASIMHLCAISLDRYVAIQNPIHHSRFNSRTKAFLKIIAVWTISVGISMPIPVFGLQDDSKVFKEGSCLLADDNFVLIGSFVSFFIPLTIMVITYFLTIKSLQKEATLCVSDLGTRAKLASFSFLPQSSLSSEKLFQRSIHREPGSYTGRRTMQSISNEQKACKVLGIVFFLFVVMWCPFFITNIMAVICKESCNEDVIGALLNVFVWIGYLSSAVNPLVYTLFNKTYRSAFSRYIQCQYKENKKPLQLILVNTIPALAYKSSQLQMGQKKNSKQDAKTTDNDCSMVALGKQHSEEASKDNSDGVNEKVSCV

5-HT2A [2] = target: T1, 5-HT2A; test: PathHunter β-Arrestin assay; type: cell-based
Experimental: as §1
Target sequence in this assay (P28223 whole entry, the tested form may be a part): as above
Target sequence in this assay (P32121 whole entry, further chain, the tested form may be a part): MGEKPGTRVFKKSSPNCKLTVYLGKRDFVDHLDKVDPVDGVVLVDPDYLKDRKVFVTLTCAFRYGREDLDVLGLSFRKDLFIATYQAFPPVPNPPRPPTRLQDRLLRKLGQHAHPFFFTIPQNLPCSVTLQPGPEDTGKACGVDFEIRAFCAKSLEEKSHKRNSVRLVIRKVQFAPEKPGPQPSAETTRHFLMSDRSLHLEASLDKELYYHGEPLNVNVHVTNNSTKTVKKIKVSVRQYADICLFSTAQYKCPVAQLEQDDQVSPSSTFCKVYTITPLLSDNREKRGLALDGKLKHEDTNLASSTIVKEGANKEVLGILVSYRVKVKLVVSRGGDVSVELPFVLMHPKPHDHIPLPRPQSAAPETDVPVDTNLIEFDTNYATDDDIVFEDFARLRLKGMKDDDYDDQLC

5-HT2C = target: T2, 5-HT2C (Homo sapiens, UniProt P28335); test: 5-HT receptor panel, 5-HT2C agonist EC50 (readout not stated); type: cell-based
T2 sequence (P28335 33-458): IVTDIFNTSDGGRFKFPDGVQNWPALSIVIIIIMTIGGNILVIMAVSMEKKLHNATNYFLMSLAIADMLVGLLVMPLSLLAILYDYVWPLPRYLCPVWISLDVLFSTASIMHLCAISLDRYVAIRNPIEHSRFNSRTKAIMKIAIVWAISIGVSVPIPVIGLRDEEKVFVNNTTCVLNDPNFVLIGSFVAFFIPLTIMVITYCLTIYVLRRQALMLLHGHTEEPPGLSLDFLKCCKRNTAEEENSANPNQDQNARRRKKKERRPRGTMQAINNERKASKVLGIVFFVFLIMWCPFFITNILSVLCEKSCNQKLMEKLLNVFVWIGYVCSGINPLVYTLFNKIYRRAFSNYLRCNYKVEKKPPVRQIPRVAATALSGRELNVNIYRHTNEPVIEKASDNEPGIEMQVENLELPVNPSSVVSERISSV
Experimental: as §1

5-HT2A [3] = target: T1, 5-HT2A; settings: compared to reference LSD; cited from earlier work
Target sequence in this assay (P28223 whole entry, the tested form may be a part): as the sequence (P28223 whole entry, the tested form may be a part) above

5-HT2A receptor [4] = settings: cited from earlier work
5-HT2A receptor [5] = settings: cited from earlier work; remark: listed apart in the source

| SMILES | activation at 30 µM (5-HT2A [1]) | EC50 (5-HT2A [2]) | EC50 (5-HT2C) | further results |
| --- | --- | --- | --- | --- |
| Cc1cc(Cl)cc(CNCCc2c[nH]c3ccccc23)c1 [Compound 1, N-(3-chloro-5-methylbenzyl)-2-(1H-indol-3-yl) ethan-1-amine] | 77.8% | 4.5 nM | 28 nM | – |
| Cc1cc(Cl)cc(CNC(C)Cc2c[nH]c3ccccc23)c1 (stereo not drawn) [Compound 2, N-(3-chloro-5-methylbenzyl)-1-(1H-indol-3-yl) propan-2-amine] | 84.2% | 434 nM | 102 nM | – |
| Cc1cc(Cl)cc(CNCc2c[nH]c3ccccc23)c1 [Compound 3, N-((1H-indol-3-yl)methyl)-1-(3-chloro-5-methylphenyl) methanamine hydrochloride] | 77.2% | – | – | – |
| COc1cc2c(CCNCc3cc(C)cc(Cl)c3)c[nH]c2cc1I [Compound 4, N-(3-chloro-5-methylbenzyl)-2-(6-iodo-5-methoxy-1H-indol-3-yl) ethan-1-amine] | 96.4% | 60 nM | 384 nM | – |
| Cc1cc(Cl)cc(CNCCc2cn(C)c3ccccc23)c1 [Compound 5, N-(3-chloro-5-methylbenzyl)-2-(1-methyl-1H-indol-3-yl) ethan-1-amine] | 112% | 17.5 nM | 116 nM | – |
| Cc1cc(Cl)cc(CNC(C)Cc2cn(C)c3ccccc23)c1 (stereo not drawn) [Compound 6, N-(3-chloro-5-methylbenzyl)-1-(1-methyl-1H-indol-3-yl) propan-2-amine] | 110% | – | – | – |
| CCn1cc(CCNCc2cc(C)cc(Cl)c2)c2ccccc21 [Compound 7, N-(3-chloro-5-methylbenzyl)-2-(1-ethyl-1H-indol-3-yl) ethan-1-amine hydrochloride] | 95.9% | 17.2 nM | 4 nM | – |
| CCn1cc(CC(C)NCc2cc(C)cc(Cl)c2)c2ccccc21 (stereo not drawn) [Compound 8, N-(3-chloro-5-methylbenzyl)-1-(1-ethyl-1H-indol-3-yl) propan-2-amine] | 86.4% | – | – | – |
| Cc1cc(Cl)cc(CNCCc2c(C)[nH]c3ccccc23)c1 [Compound 9, N-(3-chloro-5-methylbenzyl)-2-(2-methyl-1H-indol-3-yl) ethan-1-amine hydrochloride] | 88.9% | 15 nM | > 1000 nM | – |
| Cc1cc(F)cc(CNCCc2c[nH]c3ccccc23)c1 [Compound 10, N-(3-fluoro-5-methylbenzyl)-2-(1H-indol-3-yl) ethan-1-amine hydrochloride] | 72.6% | – | – | – |
| Cc1cc(Cl)cc(CNCCc2nn(C)c3ccccc23)c1 [Compound 11, N-(3-chloro-5-methylbenzyl)-2-(1-methyl-1H-indazol-3-yl)-ethan-1-amine] | 79.1% | – | – | – |
| Cc1cc(Cl)cc(CNCCn2ncc3ccccc32)c1 [Compound 12, N-(3-chloro-5-methylbenzyl)-2-(1H-indazol-1-yl) ethan-1-amine hydrochloride] | 69.8% | – | – | – |
| Cc1cc(Cl)cc(CNCCn2cnc3ccccc32)c1 [Compound 13, 2-(1H-benzo[d]imidazol-1-yl)-N-(3-chloro-5-methylbenzyl) ethan-1-amine hydrochloride] | 43.5% | – | – | – |
| Cc1cc(Cl)cc(CNCCn2c(=O)oc3ccccc32)c1 [Compound 17, 3-(2-((3-chloro-5-methylbenzyl)amino)ethyl)benzo-[d]oxazol-2(3H)-one] | -5.4% | – | – | – |
| Cc1cc(Cl)cc(CN(C)CCc2c[nH]c3ccccc23)c1 [Compound 18] | 93.3% | – | – | – |
| COc1ccc(OC)c(CCNCc2ccccc2F)c1 [Compound 25H-NBF] | – | – | – | preference for recruitment of β-arrestin 2 over miniGaq (5-HT2A [3]): statistically significant preference towards the recruitment of β-arrestin 2 over miniGaq |
| COc1ccc(OC)c(CCNCc2cccc3c2OCO3)c1 [Compound 25H-NBMD] | – | – | – | preference for recruitment of β-arrestin 2 over miniGaq (5-HT2A [3]): statistically significant preference towards the recruitment of β-arrestin 2 over miniGaq |
| COc1ccc(OC)c(CCNCc2ccccc2O)c1 [Compound 25H-NBOH] | – | – | – | preference for recruitment of β-arrestin 2 over miniGaq (5-HT2A [3]): statistically significant preference towards the recruitment of β-arrestin 2 over miniGaq |
| COc1ccc(OC)c(CCNCc2ccccc2OC)c1 [Compound 25H-NBOMe] | – | – | – | preference for recruitment of β-arrestin 2 over miniGaq (5-HT2A [3]): statistically significant preference towards the recruitment of β-arrestin 2 over miniGaq |
| CCN(CC)C(=O)[C@@H]1C=C2c3cccc4[nH]cc(c34)C[C@H]2N(C)C1 [LSD] | – | – | – | activation of canonical Gq-based signaling downstream of 5-HT2A (5-HT2A receptor [4]): activate canonical Gq-based signaling downstream of 5-HT2A; expression of early growth response proteins (EGR1 and EGR2) via Gi/o subunits and SRC protein kinase (5-HT2A receptor [5]): stimulated the expression of early growth response proteins (EGR1 and EGR2) |
